# Source: article PMC7582905, “Effect of Disulfide Cyclization of Ultrashort Cationic Lipopeptides on Antimicrobial Activity and Cytotoxicity” (International Journal of Molecular Sciences, 2020)
# Where two headings read alike, the source gives them in different places. Where a SMILES comes first, the peptide text is derived from it. Bridges are numbered along the chain shown (N, C = ends). The star is where a group is joined. Palmitoyl = CCCCCCCCCCCCCCCC(=O)*
# Columns and labels:
# [1] = test system: Staphylococcus aureus ATCC 25923; conditions: values marked *: performed by the group in the previous study; ref [29]; cited from earlier work
# From the text: Table 3 Antibiofilm activity of lipopeptides. | column: MBEC (μg/mL) / S. aureus
# [2] = test system: Staphylococcus aureus ATCC 25923; conditions: values marked *: performed by the group in the previous study; ref [29]; cited from earlier work; remark: listed apart in the source
# From the text: Table 2 Antimicrobial activity of lipopeptides. | column: MIC (μg/mL) / S. aureus
# [3] = test system: E. coli ML-35 (ATCC 43827); type: cell-based, Escherichia coli
# [4] = test system: Staphylococcus aureus ATCC 25923; type: cell-based
# Method: The Staphylococcus aureus ATCC 25923, Staphylococcus epidermidis ATCC 14990, Escherichia coli ATCC 25922, Pseudomonas aeruginosa ATCC 9027, Candida albicans ATCC 10231, Candida glabrata ATCC 15126, Candida lipolytica PCM 2680-FY, and Candida tropicalis PCM 2709-FY strains were acquired from the Polish Collection of Microorganisms (PCM, Polish Academy of Sciences, Wrocław, Poland) and from the American Type Culture Collection (ATCC). All the strains were stored at −80 °C in Roti-Store cryo vials and before the tests were transferred into fresh Mueller–Hinton broth (MHB, Biocorp, Warsaw, Poland) for bacteria or RPMI-1640 (Sigma-Aldrich, Steinheim, Germany) for fungi and incubated for 24 h at 37 °C. Then, the cultures were seeded on Mueller–Hinton agar (BioMaxima, Lublin, Poland) or Sabouraud dextrose agar (SDA, BioMaxima, Lublin, Poland) plates, respectively, and incubated as just mentioned. These agar cultures were used for further microbiological assays. Cell densities for all assays were adjusted spectrophotometrically (Multiskan GO Microplate Spectrophotometer, Thermo Fisher Scientific, Vantaa, Finland) at 600 and 660 nm for bacteria and fungi, respectively.
# MBECs were determined on 96-well polystyrene flat-bottom plates. For this purpose, 24 h cultures of microorganisms were diluted to obtain final density 5.0 × 10^5 CFU/mL and 2.0 × 10^5 CFU/mL of bacteria and fungi, respectively. Briefly, 100 µL of cell suspension was added into the test plates. After 24 h of incubation at 37 °C the wells were rinsed three times with a phosphate buffer saline (PBS, pH 7.4) to remove non-adherent cells. Subsequently, 100 μL of the test compounds in concentration range (0.5–256 μg/mL) were added to each well. After 24 h of incubation at 37 °C, 20 μL of a cell viability reagent was added (resazurin, 4 g/L; Sigma Aldrich, St. Louis, MO, USA). The MBEC was read after 1 h. The determined values were recorded as the lowest concentration at which the reduction of resazurin (from blue to pink) was lower or equal to 10 ± 0.5% as compared to the positive (100%) and negative (0%) controls. The reduction was monitored by measuring absorbance at 570 nm (reduced) and 600 nm (oxidized) using a microplate spectrophotometer (Multiskan GO Microplate Spectrophotometer, Thermo Fisher Scientific, Vantaa, Finland). All experiments were conducted in triplicate.
# [5] = test system: Staphylococcus aureus ATCC 25923; type: cell-based; remark: listed apart in the source
# In short: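 Broth microdilution per CLSI: bacteria at 5 × 10^5 CFU/mL in MHB, 18 h, and yeasts at 2 × 10^3 CFU/mL in RPMI-1640 with 2% D-glucose, 24 h, both at 37 °C, lipopeptides 0.5–256 μg/mL. MIC is lowest concentration visibly inhibiting growth; triplicate.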
# keratinocytes = conditions: reported in the literature; ref [13]; cited from earlier work
# From the text: However, an identical hemolysis pattern is consistent only with peptides L4, C4, L7, and C7. A common feature of these compounds is the presence of arginine residue in the second and third position, which differentiates them from the rest of compounds used in this study. Overall effect of disulfide cyclization on hemolysis seems to be dependent on arginine(s) position. In general, disulfide cyclization of lipopeptides results in the reduced cytotoxicity a ...
# [6] = test system: Candida albicans ATCC 10231; experiment: Transmission electron microscopy (TEM); type: cell-based; conditions: 2 × MIC, 5.0 × 10^6 CFU/mL, 1 h at room temperature
# Method: TEM was used to examine ultrastructural changes in the Candida albicans ATCC 10231 cells treated with selected lipopeptides (L2, C2, L4, C4) and melittin (positive control). Fungal cells (Candida albicans ATCC 10231) were incubated in RMPI-1640 overnight. The cells were centrifuged (3500 rpm, 7 min) and resuspended in fresh RMPI-1640 medium to obtain dense cell suspension (5.0 × 10^6 CFU/mL). The high cell-density culture was prepared to facilitate TEM observations. Peptides’ concentrations were 2 × MIC. Samples were incubated for 1 h at room temperature. Importantly, MIC of selected peptides (L2, C2, L4, C4, and melittin) were also determined with dense inoculum of yeasts (5.0 × 10^6 CFU/mL). After the treatment, the fungal cells were centrifuged (3500× rpm, 10 min) and washed twice with PBS. Fungal cells were fixed with 2.5% glutaraldehyde buffered at pH 6.5 with 0.1 M sodium cacodylate (Polysciences, Warrington, PA, USA) for 6 h at room temperature. Postfixation was performed with a 1% osmium tetroxide (Polysciences, Warrington, PA, USA) solution for 2 h at 4 °C. The cells were then centrifuged and resuspended in 0.1 M cacodylate buffer (pH 6.5). After re-centrifugation, cells were dehydrated with ethanol. Yeasts were embedded in Epon 812 resin (Sigma-Aldrich) at room temperature. An ultramicrotome Leica UC7 was used to prepare ultrathin sections (55 nm). […]
Structure (SMILES),MBEC S. aureus [1],MIC S. aureus [2],"MBEC S. aureus ([4]; ATCC 25923, 24 h)","MIC S. aureus ([5]; ATCC 25923, 18 h)",further results
"CCCCCCCCCCCCCCCC(=O)N[C@@H](CCCCN)C(=O)N[C@@H](CCCCN)C(=O)N[C@@H](CCCCN)C(=O)N[C@@H](CCCNC(=N)N)C(N)=O [L6, C16-KKKR-NH2] (Palmitoyl-KKKR-NH2)",32 * μg/mL,16 * μg/mL,,,
"CCCCCCCCCCCCCCCC(=O)N[C@H]1CSSC[C@@H](C(N)=O)NC(=O)[C@H](CCCNC(=N)N)NC(=O)[C@H](CCCCN)NC(=O)[C@H](CCCCN)NC(=O)[C@H](CCCCN)NC1=O [C6, C16-CKKKRC-NH2] (Palmitoyl-CKKKRC-NH2; disulfide 1-6)",64 * μg/mL,16 * μg/mL,,,
"CCCCCCCCCCCCCCCC(=O)N[C@@H](CCCCN)C(=O)N[C@@H](CCCCN)C(=O)N[C@@H](CCCCN)C(=O)N[C@@H](CCCCN)C(N)=O [L2, C16-KKKK-NH2] (Palmitoyl-KKKK-NH2)",,,64 µg/mL,16 µg/mL,MIC against E. coli ML-35 [3]: 4 µg/mL
"CCCCCCCCCCCCCCCC(=O)N[C@H]1CSSC[C@@H](C(N)=O)NC(=O)[C@H](CCCCN)NC(=O)[C@H](CCCNC(=N)N)NC(=O)[C@H](CCCCN)NC(=O)[C@H](CCCCN)NC1=O [C5, C16-CKKRKC-NH2] (Palmitoyl-CKKRKC-NH2; disulfide 1-6)",128 * μg/mL,8 * μg/mL,,,
"CCCCCCCCCCCCCCCC(=O)N[C@H]1CSSC[C@@H](C(N)=O)NC(=O)[C@H](CCCCN)NC(=O)[C@H](CCCCN)NC(=O)[C@H](CCCCN)NC(=O)[C@H](CCCNC(=N)N)NC1=O [C3, C16-CRKKKC-NH2] (Palmitoyl-CRKKKC-NH2; disulfide 1-6)",128 * μg/mL,8 * μg/mL,,,
"CCCCCCCCCCCCCCCC(=O)N[C@@H](CCCCN)C(=O)N[C@@H](CCCNC(=N)N)C(=O)N[C@@H](CCCCN)C(=O)N[C@@H](CCCCN)C(N)=O [L4, C16-KRKK-NH2] (Palmitoyl-KRKK-NH2)",,,64 µg/mL,8 µg/mL,MIC against E. coli ML-35 [3]: 4 µg/mL
"CCCCCCCCCCCCCCCC(=O)N[C@@H](CCCNC(=N)N)C(=O)N[C@@H](CCCNC(=N)N)C(=O)N[C@@H](CCCCN)C(=O)N[C@@H](CCCCN)C(N)=O [L7, C16-RRKK-NH2] (Palmitoyl-RRKK-NH2)",,,128 µg/mL,4 µg/mL,
"CCCCCCCCCCCCCCCC(=O)N[C@H]1CSSC[C@@H](C(N)=O)NC(=O)[C@H](CCCCN)NC(=O)[C@H](CCCCN)NC(=O)[C@H](CCCCN)NC(=O)[C@H](CCCCN)NC1=O [C2, C16-CKKKKC-NH2] (Palmitoyl-CKKKKC-NH2; disulfide 1-6)",,,,,"MIC against E. coli ML-35 [3]: 8 µg/mL; MBEC S. aureus ([4]; 24 h biofilm on polystyrene plates, 24 h exposure at 37 °C, resazurin, triplicate): 64 µg/mL; MIC S. aureus ([5]; broth microdilution (CLSI), MHB, 5 × 10^5 CFU/mL, 37 °C, 18 h, visual, triplicate): 32 µg/mL"
"CCCCCCCCCCCCCCCC(=O)N[C@@H](CCCCN)C(=O)N[C@@H](CCCCN)C(=O)N[C@@H](CCCNC(=N)N)C(=O)N[C@@H](CCCCN)C(N)=O [L5, C16-KKRK-NH2] (Palmitoyl-KKRK-NH2)",32 * μg/mL,16 * μg/mL,,,
"CCCCCCCCCCCCCCCC(=O)N[C@H]1CSSC[C@@H](C(N)=O)NC(=O)[C@H](CCCCN)NC(=O)[C@H](CCCCN)NC(=O)[C@H](CCCCN)NC1=O [C1, C16-CKKKC-NH2] (Palmitoyl-CKKKC-NH2; disulfide 1-5)",64 * μg/mL,8 * μg/mL,,,
"CCCCCCCCCCCCCCCC(=O)N[C@@H](CCCCN)C(=O)N[C@@H](CCCCN)C(=O)N[C@@H](CCCCN)C(N)=O [L1, C16-KKK-NH2]",64 * μg/mL,32 * μg/mL,,,toxicity against keratinocytes (keratinocytes): 3.2 µg/mL
"CCCCCCCCCCCCCCCC(=O)N[C@H]1CSSC[C@@H](C(N)=O)NC(=O)[C@H](CCCCN)NC(=O)[C@H](CCCCN)NC(=O)[C@H](CCCNC(=N)N)NC(=O)[C@H](CCCNC(=N)N)NC1=O [C7, C16-CRRKKC-NH2] (Palmitoyl-CRRKKC-NH2; disulfide 1-6)",,,128 µg/mL,8 µg/mL,
"CCCCCCCCCCCCCCCC(=O)N[C@@H](CCCNC(=N)N)C(=O)N[C@@H](CCCCN)C(=O)N[C@@H](CCCCN)C(=O)N[C@@H](CCCCN)C(N)=O [L3, C16-RKKK-NH2] (Palmitoyl-RKKK-NH2)",64 * μg/mL,16 * μg/mL,,,
"CCCCCCCCCCCCCCCC(=O)N[C@H]1CSSC[C@@H](C(N)=O)NC(=O)[C@H](CCCCN)NC(=O)[C@H](CCCCN)NC(=O)[C@H](CCCNC(=N)N)NC(=O)[C@H](CCCCN)NC1=O [C4, C16-CKRKKC-NH2] (Palmitoyl-CKRKKC-NH2; disulfide 1-6)",,,64 µg/mL,16 µg/mL,MIC against E. coli ML-35 [3]: 8 µg/mL; ultrastructural changes in TEM micrographs [6]: numerous vesicles are visible inside and outside the cell
